Read-outs that look alike come from different tables or passages of the source.

What all share (type): biochemical
The target in one assay is T1, DNMT3A/3L (Homo sapiens, UniProt Q9Y6K1).
T1 construct: purchased Structural Genomics Consortium (SGC Toronto) in-house methyltransferase panel
Nature of the assay: Methyltransferase selectivity assay (filter-based). The method, then: (§1) Selectivity against methyltransferases were determined as described previously. Details of the assays are described in the supplementary methods.
(§2) Methyltransferase selectivity assay1
(§3) The effect of chemical probes and negative controls on the methyltransferase activities of protein, DNA and RNA methyltransferases was tested by radiometric assays using 3H-SAM. […]
Briefly, a 10 µL reaction containing 3H- […]
(§4) The CPM in the absence of compound or enzyme was defined as 100% activity and background (0%), respectively, for each dataset. […]
(§5) For proteins which were tested with nucleosome as substrate such as DOT1L, NSD1, NSD2, NSD3, and ASH1L, or unbiotinylated Poly(2′-deoxyinosinic-2′-deoxycytidylic acid) (Cat# 81349-500UG, Sigma Aldrich) such as DNMT3A/3L, and DNMT3B/3L, a filter-based assay was used. In this assay, a trichloroacetic acid (TCA) protein precipitation protocol was employed. A 10 µL reaction mixture was incubated at 23°C for 1 h, followed by addition of 50 µL of 10% TCA. The mixture was transferred to filter plates (Millipore, Billerica, MA, USA) that were centrifuged at 2000 rpm (Allegra X-15R; Beckman Coulter, Brea, CA, USA) for 2 min. Samples were washed twice with 10% TCA and once with ethanol (180 µL), and centrifuged. After drying, 100 µL MicroScint-O (Perkin Elmer) was added to each well and the plates were centrifuged to remove the liquid. A 70 µL volume of MicroScint-O was added and the CPM was measured with a TopCount plate reader.

In the next assay the target is T2, NSD3 (Homo sapiens, UniProt Q9BZ95).
T2 construct: purchased Structural Genomics Consortium (SGC Toronto) in-house methyltransferase panel
T2 sequence (Q9BZ95 1-1437): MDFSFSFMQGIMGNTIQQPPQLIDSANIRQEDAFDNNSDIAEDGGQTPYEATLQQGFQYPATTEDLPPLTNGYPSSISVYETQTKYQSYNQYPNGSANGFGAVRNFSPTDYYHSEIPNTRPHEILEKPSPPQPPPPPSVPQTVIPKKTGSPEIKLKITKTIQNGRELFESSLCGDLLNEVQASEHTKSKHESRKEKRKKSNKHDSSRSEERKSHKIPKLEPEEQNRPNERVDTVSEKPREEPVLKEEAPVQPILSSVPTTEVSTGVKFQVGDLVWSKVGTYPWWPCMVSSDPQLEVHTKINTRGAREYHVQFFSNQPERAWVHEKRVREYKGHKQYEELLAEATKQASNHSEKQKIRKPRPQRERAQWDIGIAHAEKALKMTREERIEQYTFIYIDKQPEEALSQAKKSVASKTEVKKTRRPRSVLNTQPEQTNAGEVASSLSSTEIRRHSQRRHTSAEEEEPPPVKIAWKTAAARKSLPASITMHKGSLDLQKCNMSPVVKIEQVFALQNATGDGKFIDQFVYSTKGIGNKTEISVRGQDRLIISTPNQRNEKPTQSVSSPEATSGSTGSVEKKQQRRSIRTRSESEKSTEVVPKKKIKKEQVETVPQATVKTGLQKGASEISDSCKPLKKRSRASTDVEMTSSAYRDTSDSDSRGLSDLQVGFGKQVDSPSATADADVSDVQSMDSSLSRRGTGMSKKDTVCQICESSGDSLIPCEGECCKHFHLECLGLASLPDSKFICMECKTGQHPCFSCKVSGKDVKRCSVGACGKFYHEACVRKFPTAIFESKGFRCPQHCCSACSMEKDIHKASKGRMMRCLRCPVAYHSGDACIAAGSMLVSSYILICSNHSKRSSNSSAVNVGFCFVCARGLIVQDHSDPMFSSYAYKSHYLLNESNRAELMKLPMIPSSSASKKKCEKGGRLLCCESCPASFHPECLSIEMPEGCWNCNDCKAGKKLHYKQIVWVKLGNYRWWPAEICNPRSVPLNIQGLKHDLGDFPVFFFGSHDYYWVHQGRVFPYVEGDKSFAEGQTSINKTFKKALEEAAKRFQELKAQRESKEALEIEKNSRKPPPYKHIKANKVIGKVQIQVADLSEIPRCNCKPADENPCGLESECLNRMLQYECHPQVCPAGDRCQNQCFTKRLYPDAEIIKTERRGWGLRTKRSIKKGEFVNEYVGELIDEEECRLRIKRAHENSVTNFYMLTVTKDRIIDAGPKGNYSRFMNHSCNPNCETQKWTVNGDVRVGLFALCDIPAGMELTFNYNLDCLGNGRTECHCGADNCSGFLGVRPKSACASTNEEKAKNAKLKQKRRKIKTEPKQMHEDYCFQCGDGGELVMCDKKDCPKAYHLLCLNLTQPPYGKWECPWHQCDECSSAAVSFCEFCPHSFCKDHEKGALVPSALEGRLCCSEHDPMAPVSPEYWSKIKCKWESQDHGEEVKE
Nature of the assay: Methyltransferase selectivity assay (filter-based, nucleosome substrate). The following applies: for activity at 1 µM: 1µM compound; for activity at 10 µM / Activity %: 10µM compound; for Activity %: Exp1, Exp2, 10 µM. The method, then: as §1, §2, §3, §4, §5

A further assay has as its target T3, ASH1L (Homo sapiens, UniProt Q9NR48).
T3 construct: purchased Structural Genomics Consortium (SGC Toronto) in-house methyltransferase panel
The description is as above. As for the experimental part: as §1, §2, §3, §4, §5

Where [1] appears, read: 10µM compound, Exp1, Exp2, 10 µM.
Setting [2] is: 1µM compound, Exp1, Exp2, read-out: Activity %.
Setting [3] is: 10µM compound, Exp1, Exp2, read-out: Activity %.
The mark [4] stands for this setting: Exp1, Exp2, read-out: Activity %.

T1 sequence (Q9Y6K1 whole entry, looked up): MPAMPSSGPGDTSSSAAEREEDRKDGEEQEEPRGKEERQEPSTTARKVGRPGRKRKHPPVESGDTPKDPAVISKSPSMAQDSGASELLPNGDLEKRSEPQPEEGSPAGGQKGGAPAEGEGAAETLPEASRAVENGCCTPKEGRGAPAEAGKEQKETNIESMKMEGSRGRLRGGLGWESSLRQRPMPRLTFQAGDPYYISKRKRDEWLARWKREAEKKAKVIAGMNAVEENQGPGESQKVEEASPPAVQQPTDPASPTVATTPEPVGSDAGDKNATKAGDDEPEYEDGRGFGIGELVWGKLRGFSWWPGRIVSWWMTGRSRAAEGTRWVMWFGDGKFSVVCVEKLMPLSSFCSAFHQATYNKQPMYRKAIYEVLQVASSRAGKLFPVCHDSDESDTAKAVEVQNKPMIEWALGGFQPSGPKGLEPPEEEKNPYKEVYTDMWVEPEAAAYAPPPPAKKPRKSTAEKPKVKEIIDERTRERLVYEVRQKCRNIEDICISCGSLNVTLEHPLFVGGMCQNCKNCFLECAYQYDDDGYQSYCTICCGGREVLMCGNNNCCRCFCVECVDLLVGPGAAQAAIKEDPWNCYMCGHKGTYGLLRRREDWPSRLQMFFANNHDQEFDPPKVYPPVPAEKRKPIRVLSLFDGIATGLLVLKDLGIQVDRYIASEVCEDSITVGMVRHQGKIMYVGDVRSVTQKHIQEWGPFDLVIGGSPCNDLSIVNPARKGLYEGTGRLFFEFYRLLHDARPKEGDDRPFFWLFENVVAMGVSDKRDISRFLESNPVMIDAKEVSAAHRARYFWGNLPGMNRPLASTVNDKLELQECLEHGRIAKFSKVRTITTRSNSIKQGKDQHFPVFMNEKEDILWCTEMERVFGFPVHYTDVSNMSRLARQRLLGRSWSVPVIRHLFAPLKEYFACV
T1 sequence (Q9UJW3 whole entry partner): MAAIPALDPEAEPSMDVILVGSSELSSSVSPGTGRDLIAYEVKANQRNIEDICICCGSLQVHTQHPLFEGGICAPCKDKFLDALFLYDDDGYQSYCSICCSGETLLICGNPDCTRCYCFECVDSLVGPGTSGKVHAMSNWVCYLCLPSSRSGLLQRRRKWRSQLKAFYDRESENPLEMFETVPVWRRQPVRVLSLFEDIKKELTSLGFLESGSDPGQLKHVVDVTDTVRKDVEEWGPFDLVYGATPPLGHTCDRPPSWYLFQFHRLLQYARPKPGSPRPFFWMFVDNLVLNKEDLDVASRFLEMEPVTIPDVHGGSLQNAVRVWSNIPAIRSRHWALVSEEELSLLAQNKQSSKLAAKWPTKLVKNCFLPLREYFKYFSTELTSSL

Consider `COc1cc(OC)cc(-c2noc(N3CCN(C)C4(CCN(c5ccccc5)CC4)C3)n2)c1` [MRK-740 -NC], for which the activity at 1 µM came out at 100% at DNMT3A/3L (1µM compound, Exp1, Exp2); 97% on NSD3 (Exp1, Exp2); 100% at ASH1L (1µM compound, Exp1, Exp2). Moreover, the Activity % at DNMT3A/3L (1µM compound, Exp1, Exp2, 1 µM) is 91%; at DNMT3A/3L (setting [1]), 87%; at NSD3 it was 93%; on ASH1L (setting [1]), 98%. Moreover, the activity at 10 µM was 96% at DNMT3A/3L (10µM compound, Exp1, Exp2); 95% at NSD3 (Exp1, Exp2); 99% on ASH1L (10µM compound, Exp1, Exp2).
Regarding `COc1cc(OC)cc(-c2noc(N3CCN(C)C4(CCN(c5ccnc(C)c5)CC4)C3)n2)c1` [MRK-740], the Activity % on DNMT3A/3L (1µM compound, Exp1, Exp2, 1 µM) is listed as 107%; on NSD3, 99%; on ASH1L (1µM compound, Exp1, Exp2, 1 µM) it was 102%. Besides, the activity at 1 µM at DNMT3A/3L (setting [2]) was 108%; at NSD3 (setting [4]), 89%; on ASH1L (setting [2]) it was 113%. Also, the activity at 10 µM turned out to be 100% at DNMT3A/3L (setting [3]), 95% on NSD3 (setting [4]) and 93% at ASH1L (setting [3]).

These data come from article PMC6917776, “Discovery of a chemical probe for PRDM9” (Nature Communications, 2019).
